The target of this assay is T1, NapA (wild-type NapA, MVV) (Thermus thermophilus, UniProt Q72IM4).
T1 construct: gene TT_C1108; homodimer, 82,450 Da; in C8E4
In words: native nESI-MS and tandem MS of protein-lipid complexes; ion mobility unfolding. The conditions noted are these: detergent C8E4, ammonium acetate pH 7.5; annular, non-specific phospholipid binding.

This note sets out measurements from article PMC5234078, “Integrating mass spectrometry with MD simulations reveals the role of lipids in Na^+/H^+ antiporters” (Nature Communications, 2017).

T1 sequence (Q72IM4 entry or part of it): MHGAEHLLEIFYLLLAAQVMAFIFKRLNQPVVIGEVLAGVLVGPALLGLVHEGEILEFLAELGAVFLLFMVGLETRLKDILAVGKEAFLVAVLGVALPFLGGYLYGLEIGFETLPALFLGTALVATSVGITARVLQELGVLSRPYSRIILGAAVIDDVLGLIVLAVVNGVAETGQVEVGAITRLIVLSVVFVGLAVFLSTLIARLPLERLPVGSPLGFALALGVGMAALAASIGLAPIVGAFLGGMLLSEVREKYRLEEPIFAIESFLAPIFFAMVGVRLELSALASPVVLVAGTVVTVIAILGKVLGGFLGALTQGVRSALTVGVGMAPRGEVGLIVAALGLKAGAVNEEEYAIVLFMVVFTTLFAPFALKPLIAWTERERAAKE

For the compound `CCCCCCCC/C=C\CCCCCCCC(=O)O[C@H](COC(=O)CCCCCCCCCCCCCCC)COP(=O)(O)OCCN` [PE, 1-palmitoyl-2-oleoyl-glycerophospho-ethanolamine], the “native nESI-MS and tandem MS of protein-lipid complexes; ion mobility unfolding” value is “NapA with PE show a concentration-dependent increase in the number of lipid adducts”.

Regarding `CCCCCCCC/C=C\CCCCCCCC(=O)O[C@H](COC(=O)CCCCCCCCCCCCCCC)COP(=O)(O)OCC(O)CO` (some centres unmarked) [PG, 1-palmitoyl-2-oleoyl-phosphatidyl-glycerol], the “native nESI-MS and tandem MS of protein-lipid complexes; ion mobility unfolding” value is reported as “Interactions with negatively charged PG lipids exhibit higher gas-phase stabilities than with zwitterionic PE”.
